Reference: US7211572B2 (Japan Tobacco Inc., priority 2003, dated 2007)
Where a name gives a salt, the structure may show the parent alone.

Target: T1, HIV integrase (Human immunodeficiency virus type 1 group M subtype B, UniProt P12497, F1332H)
T1 construct: HIV integrase full length gene; made in house; host or cells: Escherichia coli BL21(DE3), plasmid pET21a-INH
Test: Determination of enzyme (HIV integrase) inhibitory activity
Format: biochemical
Conditions: recombinant HIV integrase (F185H), strand transfer ELISA, absorbance at 450 nm
How it was run: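 Full-length integrase with F185H, expressed in E. coli and purified, was reacted for 60 min at 37 °C with compound and biotinylated donor DNA bound to streptavidin plates. Target DNA was added for 10 min, then anti-digoxigenin-peroxidase detection at A450; IC50 from % inhibition versus enzyme-free blank.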

Q: Cc1cnc(-c2cn3c(c(O)c2=O)C(=O)N(Cc2cccc(Cl)c2)CC3)s1 [Example 248, 2-(3-chlorobenzyl)-9-hydroxy-7-(5-methylthiazol-2-yl)-3,4-dihydro-2H-pyrido[1,2-a]pyrazine-1,8-dione] was tested. Which IC50 did it give?
A: Its IC50 is less than 0.01 µM.

Q: With O=C1c2c(O)c(=O)c(-c3nccs3)cn2CCN1Cc1ccc(Cl)c(Cl)c1 [Example 249, 2-(3,4-dichlorobenzyl)-9-hydroxy-7-(thiazol-2-yl)-3,4-dihydro-2H-pyrido[1,2-a]pyrazine-1,8-dione] as the compound, how does the IC50 read?
A: Its IC50 is less than 0.01 µM.

Q: Which IC50 does the source give for O=c1ccn2ccn(Cc3ccc(F)cc3)c(=O)c2c1O [Example 250, 2-(4-fluorobenzyl)-9-hydroxy-2H-pyrido[1,2-a]pyrazine-1,8-dione hydrochloride] here?
A: The IC50 was 0.01 to 0.1 µM.

Q: For CC(C)(C)C(=O)c1cn2ccn(Cc3ccc(F)cc3)c(=O)c2c(O)c1=O [Example 251, 7-(2,2-dimethylpropionyl)-2-(4-fluorobenzyl)-9-hydroxy-2H-pyrido[1,2-a]pyrazine-1,8-dione hydrochloride], which IC50 is on record?
A: The IC50 was less than 0.01 µM.

Q: For O=c1c(-c2nccs2)cn2ccn(Cc3ccc(F)cc3)c(=O)c2c1O [Example 252, 2-(4-fluorobenzyl)-9-hydroxy-7-(thiazol-2-yl)-2H-pyrido[1,2-a]pyrazine-1,8-dione hydrochloride], which IC50 is on record?
A: The IC50 was less than 0.01 µM.

Q: CNC(=O)c1cn2ccn(Cc3ccc(F)cc3)c(=O)c2c(O)c1=O [Example 253, N-methyl-2-(4-fluorobenzyl)-9-hydroxy-1,8-dioxo-1,8-dihydro-2H-pyrido[1,2-a]pyrazine-7-carboxamide] was tested. Which IC50 did it give?
A: Its IC50 is less than 0.01 µM.

Q: Which IC50 does the source give for CC(C)(C)C(=O)c1cn2ccn(CCCc3c(F)cccc3Cl)c(=O)c2c(O)c1=O [Example 254, 2-[3-(2-chloro-6-fluorophenyl)propyl]-7-(2,2-dimethylpropionyl)-9-hydroxy-2H-pyrido[1,2-a]pyrazine-1,8-dione hydrochloride] here?
A: The IC50 was less than 0.01 µM.

Q: For Cc1csc(-c2cn3c(c(O)c2=O)C(=O)N(Cc2cccc(Cl)c2)CC3)n1 [Example 255, 2-(3-chlorobenzyl)-9-hydroxy-7-(4-methylthiazol-2-yl)-3,4-dihydro-2H-pyrido[1,2-a]pyrazine-1,8-dione], which IC50 is on record?
A: Its IC50 is less than 0.01 µM.

Q: How did the IC50 turn out when CCCC(=O)Nc1cn2ccn(Cc3cccc(Cl)c3)c(=O)c2c(O)c1=O [Example 256, N-[2-(3-chlorobenzyl)-9-hydroxy-1,8-dioxo-1,8-dihydro-2H-pyrido[1,2-a]pyrazin-7-yl]butyramide] was run?
A: The IC50 was less than 0.01 µM.

Q: Which IC50 does the source give for O=C(Nc1cn2ccn(Cc3cccc(Cl)c3)c(=O)c2c(O)c1=O)c1ccccc1 [Example 257, N-[2-(3-chlorobenzyl)-9-hydroxy-1,8-dioxo-1,8-dihydro-2H-pyrido[1,2-a]pyrazin-7-yl]benzamide] here?
A: Its IC50 is less than 0.01 µM.

Q: With O=C(CCc1ccccc1)Nc1cn2ccn(Cc3cccc(Cl)c3)c(=O)c2c(O)c1=O [Example 258, N-[2-(3-chlorobenzyl)-9-hydroxy-1,8-dioxo-1,8-dihydro-2H-pyrido[1,2-a]pyrazin-7-yl]-3-phenylpropionamide] as the compound, how does the IC50 read?
A: Its IC50 is less than 0.01 µM.

Q: For CC(=O)N(C)c1cn2ccn(Cc3cccc(Cl)c3)c(=O)c2c(O)c1=O [Example 259, N-[2-(3-chlorobenzyl)-9-hydroxy-1,8-dioxo-1,8-dihydro-2H-pyrido[1,2-a]pyrazin-7-yl]-N-methylacetamide], which IC50 is on record?
A: Its IC50 is less than 0.01 µM.

Q: For COCC(=O)Nc1cn2ccn(Cc3cccc(Cl)c3)c(=O)c2c(O)c1=O [Example 260, N-[2-(3-chlorobenzyl)-9-hydroxy-1,8-dioxo-1,8-dihydro-2H-pyrido[1,2-a]pyrazin-7-yl]-2-methoxyacetamide], which IC50 is on record?
A: The IC50 was less than 0.01 µM.

Q: For COC(=O)c1cn2c(c(O)c1=O)C(=O)N(Cc1cccc(Cl)c1)CC2 [Example 261, methyl 2-(3-chlorobenzyl)-9-hydroxy-1,8-dioxo-1,3,4,8-tetrahydro-2H-pyrido[1,2-a]pyrazine-7-carboxylate], which IC50 is on record?
A: The IC50 was 0.01 to 0.1 µM.

Q: Which IC50 does the source give for CN(C)C(=O)Nc1cn2ccn(Cc3cccc(Cl)c3)c(=O)c2c(O)c1=O [Example 262, 3-[2-(3-chlorobenzyl)-9-hydroxy-1,8-dioxo-1,8-dihydro-2H-pyrido[1,2-a]pyrazin-7-yl]-1,1-dimethylurea] here?
A: Its IC50 is less than 0.01 µM.

Q: Which IC50 does the source give for COC(=O)Nc1cn2ccn(Cc3cccc(Cl)c3)c(=O)c2c(O)c1=O [Example 263, methyl[2-(3-chlorobenzyl)-9-hydroxy-1,8-dioxo-1,8-dihydro-2H-pyrido[1,2-a]pyrazin-7-yl]carbamate] here?
A: The IC50 was less than 0.01 µM.

Q: For O=C1c2c(O)c(=O)c(-c3nccs3)cn2CCN1CCCc1c(F)cccc1Cl [Example 264, 2-[3-(2-chloro-6-fluorophenyl)propyl]-9-hydroxy-7-(thiazol-2-yl)-3,4-dihydro-2H-pyrido[1,2-a]pyrazine-1,8-dione], which IC50 is on record?
A: The IC50 was less than 0.01 µM.

Q: For CC(=O)C(=O)Nc1cn2ccn(Cc3cccc(Cl)c3)c(=O)c2c(O)c1=O [Example 265, N-[2-(3-chlorobenzyl)-9-hydroxy-1,8-dioxo-1,8-dihydro-2H-pyrido[1,2-a]pyrazin-7-yl]-2-oxopropionamide], which IC50 is on record?
A: The IC50 was less than 0.01 µM.

Q: With O=C(NCc1ccccc1)c1cn2c(c(O)c1=O)C(=O)N(Cc1cccc(Cl)c1)CC2 [Example 266, N-benzyl-2-(3-chlorobenzyl)-9-hydroxy-1,8-dioxo-1,3,4,8-tetrahydro-2H-pyrido[1,2-a]pyrazine-7-carboxamide] as the compound, how does the IC50 read?
A: Its IC50 is less than 0.01 µM.

Q: With O=C1c2c(O)c(=O)c(-c3cc[nH]n3)cn2CCN1Cc1cccc(Cl)c1 [Example 267, 2-(3-chlorobenzyl)-9-hydroxy-7-(1H-pyrazol-3-yl)-3,4-dihydro-2H-pyrido[1,2-a]pyrazine-1,8-dione] as the compound, how does the IC50 read?
A: The IC50 was 0.01 to 0.1 µM.

Q: How did the IC50 turn out when O=C1c2c(O)c(=O)c(-c3ccncn3)cn2CCN1Cc1cccc(Cl)c1 [Example 268, 2-(3-chlorobenzyl)-9-hydroxy-7-(pyrimidin-4-yl)-3,4-dihydro-2H-pyrido[1,2-a]pyrazine-1,8-dione] was run?
A: The IC50 was less than 0.01 µM.

Q: How did the IC50 turn out when O=C(NCc1cccc2ccccc12)c1cn2c(c(O)c1=O)C(=O)N(Cc1cccc(Cl)c1)CC2 [Example 269, N-(naphthalen-1-ylmethyl)-2-(3-chlorobenzyl)-9-hydroxy-1,8-dioxo-1,3,4,8-tetrahydro-2H-pyrido [1,2-a]pyrazine-7-carboxamide] was run?
A: Its IC50 is less than 0.01 µM.

Q: With O=C(NC(c1ccccc1)c1ccccc1)c1cn2c(c(O)c1=O)C(=O)N(Cc1cccc(Cl)c1)CC2 [Example 270, N-benzhydryl-2-(3-chlorobenzyl)-9-hydroxy-1,8-dioxo-1,3,4,8-tetrahydro-2H-pyrido[1,2-a]pyrazine-7-carboxamide] as the compound, how does the IC50 read?
A: The IC50 was 0.01 to 0.1 µM.

Q: Which IC50 does the source give for O=C1c2c(O)c(=O)c(-c3ncccn3)cn2CCN1Cc1cccc(Cl)c1 [Example 271, 2-(3-chlorobenzyl)-9-hydroxy-7-(pyrimidin-2-yl)-3,4-dihydro-2H-pyrido[1,2-a]pyrazine-1,8-dione hydrochloride] here?
A: Its IC50 is 0.01 to 0.1 µM.

Q: How did the IC50 turn out when CC(C)(C(=O)c1cn2c(c(O)c1=O)C(=O)N(Cc1cccc(Cl)c1)CC2)c1ccccc1 [Example 272, 2-(3-chlorobenzyl)-9-hydroxy-7-(2-methyl-2-phenylpropionyl)-3,4-dihydro-2H-pyrido[1,2-a]pyrazine-1,8-dione] was run?
A: The IC50 was 0.01 to 0.1 µM.

Q: For CC(C)(C)c1ccc(CNC(=O)c2cn3c(c(O)c2=O)C(=O)N(Cc2cccc(Cl)c2)CC3)cc1 [Example 273, N-(4-tert-butylbenzyl)-2-(3-chlorobenzyl)-9-hydroxy-1,8-dioxo-1,3,4,8-tetrahydro-2H-pyrido [1,2-a] pyrazine-7-carboxamide], which IC50 is on record?
A: The IC50 was 0.01 to 0.1 µM.

Q: Which IC50 does the source give for O=C(Nc1cn2ccn(Cc3cccc(Cl)c3)c(=O)c2c(O)c1=O)C1CCCC1 [Example 274, N-[2-(3-chlorobenzyl)-9-hydroxy-1,8-dioxo-1,8-dihydro-2H-pyrido[1,2-a]pyrazin-7-yl)cyclopentanecarboxamide] here?
A: Its IC50 is 0.01 to 0.1 µM.

Q: For O=C(Cc1ccc(F)cc1)Nc1cn2ccn(Cc3cccc(Cl)c3)c(=O)c2c(O)c1=O [Example 275, N-[2-(3-chlorobenzyl)-9-hydroxy-1,8-dioxo-1,8-dihydro-2H-pyrido[1,2-a]pyrazin-7-yl]-2-(4-fluorophenyl)acetamide], which IC50 is on record?
A: The IC50 was less than 0.01 µM.

Q: How did the IC50 turn out when CC(C)(C)C(=O)Nc1cn2ccn(Cc3cccc(Cl)c3)c(=O)c2c(O)c1=O [Example 276, N-[2-(3-chlorobenzyl)-9-hydroxy-1,8-dioxo-1,8-dihydro-2H-pyrido[1,2-a]pyrazin-7-yl]-2,2-dimethylpropionamide] was run?
A: Its IC50 is less than 0.01 µM.

Q: Which IC50 does the source give for CC(C)(C(=O)Nc1cn2ccn(Cc3cccc(Cl)c3)c(=O)c2c(O)c1=O)c1ccccc1 [Example 277, N-[2-(3-chlorobenzyl)-9-hydroxy-1,8-dioxo-1,8-dihydro-2H-pyrido[1,2-a]pyrazin-7-yl]-2-phenylisobutyramide] here?
A: Its IC50 is less than 0.01 µM.

Q: How did the IC50 turn out when O=C(Nc1cn2ccn(Cc3cccc(Cl)c3)c(=O)c2c(O)c1=O)c1ccc(F)cc1 [Example 278, N-[2-(3-chlorobenzyl)-9-hydroxy-1,8-dioxo-1,8-dihydro-2H-pyrido[1,2-a]pyrazin-7-yl]-4-fluorobenzamide] was run?
A: The IC50 was less than 0.01 µM.

Q: Which IC50 does the source give for O=C(Nc1cn2ccn(Cc3cccc(Cl)c3)c(=O)c2c(O)c1=O)c1ccccn1 [Example 279, N-[2-(3-chlorobenzyl)-9-hydroxy-1,8-dioxo-1,8-dihydro-2H-pyrido[1,2-a]pyrazin-7-yl]pyridine-2-carboxamide trifluoroacetate] here?
A: Its IC50 is less than 0.01 µM.

Q: For CC(C)Nc1cn2ccn(Cc3cccc(Cl)c3)c(=O)c2c(O)c1=O [Example 280, 2-(3-chlorobenzyl)-9-hydroxy-7-isopropylamino-2H-pyrido [1,2-a]pyrazine-1,8-dione hydrochloride], which IC50 is on record?
A: Its IC50 is 0.01 to 0.1 µM.

Q: For CCN(CC)c1cn2ccn(Cc3cccc(Cl)c3)c(=O)c2c(O)c1=O [Example 281, 2-(3-chlorobenzyl)-7-diethylamino-9-hydroxy-2H-pyrido[1,2-a]pyrazine-1,8-dione hydrochloride], which IC50 is on record?
A: The IC50 was 0.01 to 0.1 µM.

Q: For O=C1c2c(O)c(=O)c(-c3ccccn3)cn2CCN1Cc1cccc(Cl)c1 [Example 282, 2-(3-chlorobenzyl)-9-hydroxy-7-(pyridin-2-yl)-3,4-dihydro-2H-pyrido[1,2-a]pyrazine-1,8-dione hydrochloride], which IC50 is on record?
A: Its IC50 is less than 0.01 µM.
